Results on 27 compounds are retold here after PubChem BioAssay AID330 (DTP/NCI, 2004).

This assay relates to P388 leukemia ip, CD2F1 mice, survival T/C. Put plainly: NCI In Vivo Anticancer Drug Screen. Data for tumor model P388 Leukemia (intraperitoneal) in CD2F1 (CDF1) mice. Particulars: endpoint: median survival time, higher = longer survival. In short, it runs like this: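 Mice carrying the transplanted tumor received test compound or vehicle. Survival was recorded in each group, and the value is the treated-group measurement divided by that of the vehicle-treated control group.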

Where [1] appears, read: dose: 60.0 mg/kg/injection, schedule: Q01DX005 (ip), vehicle: saline with Tween-80.
The mark [2] stands for this setting: dose: 120.0 mg/kg/injection, schedule: Q01DX005 (ip), vehicle: saline with Tween-80.
The mark [3] stands for this setting: dose: 240.0 mg/kg/injection, schedule: Q01DX005 (ip), vehicle: saline with Tween-80.
The mark [4] stands for this setting: dose: 50.0 mg/kg/injection, schedule: Q01DX009 (ip), vehicle: saline.
Setting [5] is: dose: 100.0 mg/kg/injection, schedule: Q01DX009 (ip), vehicle: saline.
The mark [6] stands for this setting: dose: 50.0 mg/kg/injection, schedule: Q01DX009 (ip), vehicle: saline with Tween-80.
[7] abbreviates: dose: 100.0 mg/kg/injection, schedule: Q01DX009 (ip), vehicle: saline with Tween-80.
The mark [8] stands for this setting: dose: 50.0 mg/kg/injection, schedule: Q01DX005 (ip), vehicle: Klucel (hydroxypropylcellulose) (HPC).
[9] abbreviates: dose: 50.0 mg/kg/injection, schedule: Q01DX005 (ip), vehicle: saline with Tween-80.
[10] abbreviates: dose: 100.0 mg/kg/injection, schedule: Q01DX005 (ip), vehicle: saline with Tween-80.
Setting [11] is: dose: 200.0 mg/kg/injection, schedule: Q01DX005 (ip), vehicle: saline with Tween-80.
Setting [12] is: dose: 100.0 mg/kg/injection, schedule: Q04DX002 (ip), vehicle: saline with Tween-80.
The mark [13] stands for this setting: dose: 200.0 mg/kg/injection, schedule: Q04DX002 (ip), vehicle: saline with Tween-80.
Where [14] appears, read: dose: 400.0 mg/kg/injection, schedule: Q04DX002 (ip), vehicle: saline with Tween-80.
[15] abbreviates: dose: 50.0 mg/kg/injection, schedule: Q01DX009 (ip), vehicle: Klucel (hydroxypropylcellulose) (HPC).
Where [16] appears, read: dose: 100.0 mg/kg/injection, schedule: Q01DX009 (ip), vehicle: Klucel (hydroxypropylcellulose) (HPC).
Setting [17] is: dose: 25.0 mg/kg/injection, schedule: Q01DX009 (ip), vehicle: saline with Tween-80.

Where “and” joins values, the source holds several entries; their conditions need not be identical. Equal entries are not always repeated. Inconclusive results and toxic doses are left out.

Turning to `CCCCCCC(=O)CC(SCCO)c1ccccc1Cl` (stereo not drawn), the T/C under setting [1] is 92 % of control, the T/C under setting [2] was 107 % of control and the T/C under setting [3] was 114 % of control.

With `CC(=NC(C)C)N1CCCCC1`, the T/C was 101 % of control under setting [4] and 101 % of control under setting [5].

For the compound `O=C(O)c1cccnn1`, the T/C reads like this: under setting [6], 90 % of control; under setting [7], 90 % of control.

Turning to `CC(=O)Oc1cc(C)c2c(c1C)C1OC(=O)C(C)C1CC2` (stereo not drawn), the T/C is, setting by setting: under setting [8], 100 % of control; (dose: 100.0 mg/kg/injection, schedule: Q01DX005 (ip), vehicle: Klucel (hydroxypropylcellulose) (HPC)) 103 % of control; (dose: 200.0 mg/kg/injection, schedule: Q01DX005 (ip), vehicle: Klucel (hydroxypropylcellulose) (HPC)) 98 % of control.

In the case of `O=[Te]=O`, the T/C (dose: 3.12 mg/kg/injection, schedule: Q01DX005 (ip), vehicle: saline) is 103 % of control; the T/C (dose: 6.25 mg/kg/injection, schedule: Q01DX005 (ip), vehicle: saline) is 110 % of control; the T/C (dose: 12.5 mg/kg/injection, schedule: Q01DX005 (ip), vehicle: saline) is 105 % of control and 116 % of control.

Regarding `CCCCN(CCCC)CC(O)c1cc(-c2ccc(Cl)cc2)nc2c(Cl)cc(Cl)cc12` (stereo not drawn), the T/C is 100 % of control (dose: 60.0 mg/kg/injection, schedule: Q01DX005 (ip), vehicle: Klucel + Tween-80) and 88 % of control (dose: 120.0 mg/kg/injection, schedule: Q01DX005 (ip), vehicle: Klucel + Tween-80).

Consider `Cn1c2ccccc2c(=O)c2cc(NC(=O)CCCC(=O)Nc3ccc4c(c3)c(=O)c3ccccc3n4C)ccc21`, for which the T/C is 98 % of control under setting [9], 99 % of control under setting [10] and 101 % of control under setting [11].

Consider `C=C(C)c1c2ccccc2cc2cccc(Sc3ccc(C(C)(C)C)cc3)c12`, for which the T/C runs as follows: under setting [12], 101 % of control; under setting [13], 96 % of control; under setting [14], 92 % of control.

In the case of `CS1(=O)=N/C(=N\C(=O)Nc2ccccc2)c2ccccc21` (stereo not drawn), the T/C runs as follows: under setting [15], 100 % of control; under setting [16], 102 % of control; (dose: 200.0 mg/kg/injection, schedule: Q01DX009 (ip), vehicle: Klucel (hydroxypropylcellulose) (HPC)) 102 % of control.

In the case of `O=C1CN(CCCN2CCOCC2)CC(=O)N2Cc3ccccc3CN12`, the T/C (dose: 50.0 mg/kg/injection, schedule: Q01DX005 (ip), vehicle: saline) is 95 % of control; the T/C (dose: 100.0 mg/kg/injection, schedule: Q01DX005 (ip), vehicle: saline) is 110 % of control; the T/C (dose: 200.0 mg/kg/injection, schedule: Q01DX005 (ip), vehicle: saline) was 108 % of control.

`NOCc1csc(N)n1`: the T/C runs as follows: (dose: 75.0 mg/kg/injection, schedule: Q01DX009 (ip), vehicle: saline) 91 % of control; (dose: 150.0 mg/kg/injection, schedule: Q01DX009 (ip), vehicle: saline) 91 % of control; (dose: 300.0 mg/kg/injection, schedule: Q01DX009 (ip), vehicle: saline) 91 % of control.

As to `CN(C)C(=S)/N=C1\SCS(=O)(=O)N1C`, the T/C reads like this: under setting [17], 91 % of control; under setting [6], 110 % of control; under setting [7], 100 % of control.

As to `O=C1C(N=Nc2ccccc2Cl)C(O)N(c2ccccc2)C(=S)N1c1cccc(Cl)c1Cl` (stereo not drawn), the T/C is, setting by setting: (dose: 100.0 mg/kg/injection, schedule: Q01DX001 (ip), vehicle: Klucel (hydroxypropylcellulose) (HPC)) 98 % of control; (dose: 200.0 mg/kg/injection, schedule: Q01DX001 (ip), vehicle: Klucel (hydroxypropylcellulose) (HPC)) 103 % of control; (dose: 400.0 mg/kg/injection, schedule: Q01DX001 (ip), vehicle: Klucel (hydroxypropylcellulose) (HPC)) 97 % of control.

With `CN=C(NC)c1ccc(NC(=O)c2ccc(C(=O)Nc3ccc(C(=NC)NC)c(OC)c3)c(Cl)c2)cc1OC`, the T/C runs as follows: (dose: 0.78 mg/kg/injection, schedule: Q01DX005 (ip), vehicle: saline with Tween-80) 101 % of control; (dose: 1.56 mg/kg/injection, schedule: Q01DX005 (ip), vehicle: saline with Tween-80) 104 % of control; (dose: 3.13 mg/kg/injection, schedule: Q01DX005 (ip), vehicle: saline with Tween-80) 105 % of control.

As for `CC(=O)Nc1c(Cl)c(Cl)c2c(c1Cl)Cc1cc(Cl)c(Cl)cc1-2`, the T/C is, setting by setting: (dose: 12.5 mg/kg/injection, schedule: Q01DX009 (ip), vehicle: saline with Tween-80) 100 % of control; under setting [17], 100 % of control; under setting [6], 95 % of control; (dose: 100.0 mg/kg/injection, schedule: Q04DX003 (ip), vehicle: saline with Tween-80) 109 % of control; (dose: 200.0 mg/kg/injection, schedule: Q04DX003 (ip), vehicle: saline with Tween-80) 100 % of control; (dose: 400.0 mg/kg/injection, schedule: Q04DX003 (ip), vehicle: saline with Tween-80) 104 % of control.

Consider `C=CCC1CCC(=O)NC1=O` (stereo not drawn), for which the T/C is, setting by setting: (dose: 50.0 mg/kg/injection, schedule: Q04DX002 (ip), vehicle: saline with Tween-80) 102 % of control; under setting [12], 102 % of control; under setting [13], 100 % of control; under setting [14], 112 % of control.

For `N#CC(=N)C(C#N)=Nc1c(O)[nH]c2ccc(Br)cc12`, the T/C runs as follows: under setting [4], 100 % of control; under setting [5], 94 % of control; (dose: 200.0 mg/kg/injection, schedule: Q01DX009 (ip), vehicle: saline) 91 % of control.

With `c1ccc(-c2nc(N3CCN(c4ccco4)CC3)c3c4c(sc3n2)CCC4)cc1`, the T/C by setting is: (dose: 12.5 mg/kg/injection, schedule: Q01DX005 (ip), vehicle: Klucel (hydroxypropylcellulose) (HPC)) 97 % of control; (dose: 25.0 mg/kg/injection, schedule: Q01DX005 (ip), vehicle: Klucel (hydroxypropylcellulose) (HPC)) 90 % of control; under setting [8], 90 % of control and 91 % of control.

On to `C[N+]12OC3CCC(O)CC1CCCC2C3` (stereo not drawn), for which the T/C (dose: 100.0 mg/kg/injection, schedule: Q01DX001 (ip), vehicle: water) is 100 % of control.

As for `CC(=O)C1=C(O)C(=O)N(c2ccccc2)C1=O`, the T/C is 97 % of control under setting [9], 102 % of control under setting [10] and 100 % of control under setting [11].

With `CC(=O)OCC1OC(n2cnc3c2N=CN2C(CCl)=CC(=O)NC32)C(OC(C)=O)C1OC(C)=O` (stereo not drawn), the T/C was 103 % of control (dose: 100.0 mg/kg/injection, schedule: Q01DX001 (ip), vehicle: saline with Tween-80); 103 % of control (dose: 200.0 mg/kg/injection, schedule: Q01DX001 (ip), vehicle: saline with Tween-80); 110 % of control (dose: 400.0 mg/kg/injection, schedule: Q01DX001 (ip), vehicle: saline with Tween-80).

In the case of `COC(=O)C1=NOC(Cc2ccccc2)C1` (stereo not drawn), the T/C under setting [1] is 100 % of control, the T/C under setting [2] is 114 % of control and the T/C under setting [3] is 96 % of control.

As for `Nc1c(Cl)cc(Cl)cc1Cl`, the T/C is, setting by setting: (dose: 100.0 mg/kg/injection, schedule: Q04DX003 (ip), vehicle: alcohol) 108 % of control; (dose: 200.0 mg/kg/injection, schedule: Q04DX003 (ip), vehicle: alcohol) 100 % of control; (dose: 400.0 mg/kg/injection, schedule: Q04DX003 (ip), vehicle: alcohol) 100 % of control.

For the compound `CCC(C)(C)c1ccc(OCCCCNC(=O)c2ccc3ccccc3c2O)c(C(C)(C)CC)c1`, the T/C runs as follows: (dose: 60.0 mg/kg/injection, schedule: Q01DX005 (ip), vehicle: Klucel (hydroxypropylcellulose) (HPC)) 90 % of control; (dose: 120.0 mg/kg/injection, schedule: Q01DX005 (ip), vehicle: Klucel (hydroxypropylcellulose) (HPC)) 89 % of control; (dose: 240.0 mg/kg/injection, schedule: Q01DX005 (ip), vehicle: Klucel (hydroxypropylcellulose) (HPC)) 86 % of control.

For `FC(F)(F)C1(C(F)(F)F)[O][Sb]([c]2ccccc2)([c]2ccccc2)([c]2ccccc2)[O]1`, the T/C runs as follows: under setting [15], 100 % of control; under setting [16], 101 % of control.

Turning to `CN(C)CCCNc1nc(-c2cccc(C(Cl)(Cl)Cl)c2)nc(C(Cl)(Cl)Cl)n1`, the T/C reads like this: under setting [17], 109 % of control; under setting [6], 111 % of control.

On to `NNC(=O)c1ccccc1CO`, for which the T/C was 96 % of control under setting [1], 102 % of control under setting [2] and 113 % of control under setting [3].
